# Measurements: paper PMC4922569, “Antifibrotic Effects of the Dual CCR2/CCR5 Antagonist Cenicriviroc in Animal Models of Liver and Kidney Fibrosis” (PLoS ONE, 2016)
# Counter-ions that a name gives are not always drawn.
# Assays:
# [1] = system: CCL2-mediated chemotaxis of activated murine macrophages (F4/80+/CD11b+); assay: Ex vivo CCL2-induced chemotaxis of activated mouse macrophages (Transwell); type: cell-based; conditions: 2 hours
# Experimental: Mouse monocyte migration in response to CVC treatment was assessed ex vivo in triplicate. TG was injected intraperitoneally into male C57BL/6 mice (n = 3; 8–10 weeks of age; Jackson Laboratory, USA) and activated macrophages were collected 48 hours later by peritoneal lavage. Chemotaxis was assayed using a Transwell® Chamber (Costar, USA) with a 5 μm-pore size polycarbonate filter, as previously described. Briefly, cells were incubated for 2 hours in the presence of 1 nM CCL2 and/or 1 μM CVC (dissolved in dimethyl sulfoxide with 0.5% acetic acid and diluted 1:1000 with serum-free Roswell Park Memorial Institute-1640 medium and 0.5% bovine serum albumin). Cells were harvested from the lower compartment and analyzed by flow cytometry to enumerate F4/80^+CD11b^+ macrophages using a 3-laser BD FACSCanto™ (BD Biosciences, Canada). Results were analyzed using FlowJo software (Tree Star Inc., USA).
# In the peritonitis mouse model, one-way analysis of variance with post-hoc Dunnett’s test was performed, using GraphPad Prism® (GraphPad Software, Inc., USA), on differential cell counts obtained from lavage in treatment groups versus the vehicle-control group. For the ex vivo migration of mouse monocytes, statistical significance was determined by a Student’s t test.
# [2] = system: TAA-induced liver fibrosis; assay: Rat model of thioacetamide (TAA)-induced liver fibrosis; type: in vivo; conditions: for Reduction in liver collagen deposition vs vehicle control: picrosirius red; for Reduction in protein expression of alpha-SMA vs vehicle control / Reduction in protein expression of collagen type 1 vs vehicle control: western blot, not statistically significant
# Experimental: The TAA model is commonly used for the evaluation of treatment at various stages of disease, from inflammation to cirrhosis. The protocol was approved by the Mount Sinai IACUC (approval number: LA12-00318) and animals were maintained according to the NIH guidelines. Anesthesia was performed with 1–5% isoflurane through inhalation; surgery was terminal.
# Using male Sprague-Dawley rats (n = 72, 10–12 weeks of age; Harlan Laboratories, USA), fibrosis was induced by IP administration of TAA at a dose of 150 mg/kg three times per week for 8 weeks. Rats (n = 4–8/group) received vehicle control, CVC 30 mg/kg/day (CVC30) or CVC100 QD PO during Weeks 0–8 (early intervention), Weeks 4–8 (established fibrosis) or Weeks 8–12 (cirrhosis reversal) and were sacrificed at Weeks 8, 8 or 12, respectively (S1 Table). Study endpoints included: body and liver weights, liver biochemistry (e.g. serum alanine and aspartate aminotransferase [ALT/AST]), extracellular matrix protein expression in liver tissue (collagen type 1 and alpha-SMA), mRNA expression (collagen type 1, alpha-SMA, beta-platelet-derived growth factor-beta receptor, TGF beta-receptor, matrix metalloproteinase 2, tissue inhibitor of metalloproteinases 1 [TIMP1] and 2 [TIMP2]) and liver morphology. For liver-function testing, plasma samples were obtained from blood collected from the vena cava. Livers were sectioned and fixed in 3.7% formalin, embedded in paraffin, cut at […] thickness and stained with hematoxylin and eosin (H&E) for histological examination.
# In the TAA model, serum ALT/AST levels were measured using VITROS® 5,1 FS (Ortho Clinical Diagnostics, USA), with plasma diluted with VITROS® 7% bovine serum albumin if needed. In the NASH model, plasma ALT levels were measured by FUJI DRI-CHEM 7000 (Fujifilm, Japan) and plasma CCL2 concentration quantified by the mouse CCL2/JE/MCP-1 immunoassay kit (R&D, USA).
# Collagen deposition (the extent of fibrosis) was visualized in liver/kidney sections with picrosirius red staining. In the TAA model, collagen quantification was performed using computerized Life Science morphometry system (BIOQUANT, USA) on a total of 36 images per animal at 100x magnification (four picrosirius red-stained slides per animal, with nine images taken randomly per slide).
# In the TAA model, total protein was extracted from liver cells and expression levels of collagen type 1 and alpha-SMA were assessed by western blotting. Protein expression levels were normalized to the reference protein (glyceraldehyde-3-phosphate dehydrogenase [GAPDH] or calnexin).
# In the hepatic-fibrosis models, RNA was extracted from liver tissues and purified, and 1 μg of total mRNA was reverse-transcribed into complementary DNA. Expression levels were determined by quantitative polymerase chain reaction (PCR) (iQ™ SYBR® Green Supermix [Bio-Rad Laboratories, USA] on the LightCycler® 480 Real-Time PCR System [Roche, Switzerland]) in the TAA model at Week 8 (early intervention and established fibrosis) and Week 12 (cirrhosis reversal), and by real-time PCR (PCR Dice® and SYBR® Premix Ex Taq™ [Takara Bio Inc., Japan]) at Week 9 in the NASH model.
# Relative mRNA expression levels were normalized to the following reference genes: TAA model, GAPDH; NASH model, 36B4 (gene symbol: Rplp0); UUO model, hypoxanthine phosphoribosyltransferase.
# Data are presented as ±standard error of the mean (SEM) in the TAA model. Statistical significance was determined by the two-tailed Student’s t test.
# [3] = CVC plasma levels in the UUO model (LC/MS/MS); type: in vivo; conditions: n = 8, ~4 hours post-dose (approximate Cmax), Day 5
# Experimental: Male CD-1 mice (n = 51; 7–8 weeks of age; Charles River Laboratories, USA) were allocated to weight-matched treatment groups on Day -1 (1 day prior to either sham [one group] or permanent right UUO surgery [five groups] via aseptic laparotomy). From Days -1 to 4, mice received phosphate-buffered saline (PBS) IP QD, apart from a positive-control group, which received 1D11 (anti-TGF-beta1 antibody) 3 mg/kg IP QD. From Days 0 to 5, mice received vehicle control (sham surgery, UUO-control and UUO+positive-control groups) or CVC 7 mg/kg/day (CVC7), CVC20 or CVC100 PO BID (S1 Table). The CVC100 group was terminated due to poor clinical condition (6/9 animals died and 3/9 euthanized prior to end of study). Of note, a similar dose of CVC100 administered for 3 weeks was well tolerated in the mouse NASH model; therefore, it is plausible that the laparotomy and UUO surgery in combination with CVC may have contributed to the loss of animals. […]
# CVC plasma levels (minimum and maximum) were determined by KCAS Bioanalytical Services, USA, using a validated liquid chromatography-tandem mass spectrometry (LC/MS/MS) plasma method (50 μL assay, range 10.0−1920.0 ng/mL).
compound,measurement,setting,value
"CCCCOCCOc1ccc(-c2ccc3c(c2)/C=C(/C(=O)Nc2ccc([S@@+]([O-])Cc4cncn4CCC)cc2)CCCN3CC(C)C)cc1 [CVC, cenicriviroc mesylate]",Average fold change in migrating cells (±SD) compared to untreated and unstimulated cells,[1]; CCL2-stimulated (1 nM) cells treated with CVC 1 μM,0.8±0.2 fold
same,Average fold change in migrating cells (±SD) compared to untreated and unstimulated cells,[1]; unstimulated cells treated with CVC 1 μM,0.7±0.4 fold
same,"mRNA expression of the fibrosis markers assessed, CVC vs vehicle control",[2]; TAA model,no significant changes
same,"ALT levels, CVC-treated vs vehicle-control groups","[2]; TAA model, all groups",no significant differences
same,Reductions in collagen type 1 and alpha-SMA protein expression,[2]; advanced disease cirrhosis group,No reductions
same,"Histologic differences between groups, H&E-stained liver sections",[2]; all TAA groups,No histologic differences
same,Reduction in collagen deposition,"[2]; cirrhosis-reversal group, CVC treatment started at Week 8 (Weeks 8-12)",No significant reduction
same,Reduction in liver collagen deposition vs vehicle control,"[2]; early intervention (Weeks 0-8), CVC30 QD PO",48.5%
same,Reduction in liver collagen deposition vs vehicle control,"[2]; early intervention (Weeks 0-8), CVC100 QD PO",37.5%
same,AST levels vs vehicle control,"[2]; early intervention group, CVC30, p < 0.05",significantly decreased
same,Reduction in protein expression of alpha-SMA vs vehicle control,"[2]; early intervention, CVC30",17%
same,Reduction in protein expression of collagen type 1 vs vehicle control,"[2]; early intervention, CVC30",29%
same,Reduction in protein expression of alpha-SMA vs vehicle control,"[2]; early intervention, CVC100",22%
same,Reduction in protein expression of collagen type 1 vs vehicle control,"[2]; early intervention, CVC100",12%
same,Reduction in liver collagen deposition vs vehicle control,"[2]; established fibrosis (Weeks 4-8), CVC30 QD PO",35.7%
same,Significant antifibrotic effect (collagen deposition) observed,"[2]; established fibrosis (Weeks 4-8), CVC100 QD PO",not
same,Reduction in protein expression of alpha-SMA vs vehicle control,"[2]; established fibrosis, CVC30",14%
same,Reduction in protein expression of collagen type 1 vs vehicle control,"[2]; established fibrosis, CVC30",30%
same,"CVC concentration (mean±SD), plasma",[3]; CVC7 BID,251 ± 364 ng/mL
same,"CVC concentration (mean±SD), plasma",[3]; CVC20 BID,971 ± 507 ng/mL
